Source: publication PMC5041076, “Ilex kaushue and Its Bioactive Component 3,5-Dicaffeoylquinic Acid Protected Mice from Lipopolysaccharide-Induced Acute Lung Injury” (Scientific Reports, 2016)
Read-outs that look alike come from different tables or passages of the source.

Key:
Human cathepsin G = molecular target: T1, Human cathepsin G (Homo sapiens, UniProt P08311); experiment: Serine protease enzyme inhibition assay, cathepsin G; type: biochemical; conditions: mean ± S.E.M. (n ≥ 3)
T1 construct: purchased Enzo BML-SE283
T1 sequence (P08311 21-255): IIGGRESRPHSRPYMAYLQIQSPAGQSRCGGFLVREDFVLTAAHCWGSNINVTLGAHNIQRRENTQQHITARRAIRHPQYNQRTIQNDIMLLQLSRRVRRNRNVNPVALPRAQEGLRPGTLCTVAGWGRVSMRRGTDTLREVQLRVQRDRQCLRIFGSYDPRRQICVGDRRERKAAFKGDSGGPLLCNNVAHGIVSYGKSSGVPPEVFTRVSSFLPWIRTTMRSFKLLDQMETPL

Bovine chymotrypsin = molecular target: T2, Bovine chymotrypsin (Bos taurus, UniProt P00766); experiment: Serine protease enzyme inhibition assay, chymotrypsin; type: biochemical; conditions: mean ± S.E.M. (n ≥ 3)
T2 construct: purchased Sigma-Aldrich C4129

[1] = system: fMLF/CB-activated neutrophils; experiment: Elastase release in fMLF/CB-activated neutrophils; type: cell-based; conditions: for IC50: read-out: IC50 HNE (NE activity / elastase release)
Description: (§1) All assays were performed as described previously[58],[59]. Neutrophils isolated from the blood of healthy volunteers (20–30 years old) were resuspended in a Ca^2+-free HBSS buffer (pH 7.4) at 4 °C before use. O2^.− generation was measured based on reduction of ferricytochrome c. In brief, after supplementation with 0.5 mg/ml ferricytochrome c and 1 mM Ca^2+, neutrophils were equilibrated at 37 °C for 2 min and incubated with the specified drugs for 5 min. Neutrophils were activated using 30 nM fMLF or 100 nM LTB4 for 10 min after addition of cytochalasin B (CB, 1 μg/mL) for 3 min. Changes in absorbance concomitant with reduction of ferricytochrome c at 550 nm were continuously monitored. For elastase release, neutrophils (6 × 10^5 cells/mL) were mixed with methoxysuccinyl-Ala-Ala-Pro-Val-pNA (100 μM) substrate at 37 °C for 5 min. […] Inhibition of superoxide generation and elastase release were calculated in keeping with previous reports.

[2] = molecular target: T3, Human neutrophil elastase (Homo sapiens, UniProt P08246); experiment: Serine protease enzyme inhibition assay, HNE; type: biochemical; conditions: for IC50: enzyme assay, mean ± S.E.M. (n ≥ 3), read-out: IC50 HNE; for Inh % (HNE inhibition): at 30 M (so in the source), Table S3
T3 construct: purchased Enzo BML-SE284
T3 sequence (P08246 30-267): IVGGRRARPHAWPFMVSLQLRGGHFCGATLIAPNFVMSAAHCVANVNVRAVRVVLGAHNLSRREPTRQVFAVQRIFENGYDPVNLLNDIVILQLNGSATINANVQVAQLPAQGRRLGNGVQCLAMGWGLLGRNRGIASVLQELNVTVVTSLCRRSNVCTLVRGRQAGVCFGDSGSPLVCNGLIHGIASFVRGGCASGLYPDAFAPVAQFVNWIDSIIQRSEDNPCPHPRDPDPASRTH

[3] = system: fMLF/CB-activated neutrophils; experiment: O2.- generation in fMLF/CB-activated neutrophils (ferricytochrome c reduction); type: cell-based, human; conditions: for IC50 / IC50 O2^.− generation: fMLF/CB-activated human neutrophils; for efficacy relative to ursolic acid: fMLF-induced neutrophils
Description: as §1

Human thrombin = Human thrombin (Homo sapiens, UniProt P00734); experiment: Serine protease enzyme inhibition assay, thrombin
Human proteinase 3 = molecular target: T4, Human proteinase 3 (Homo sapiens, UniProt P24158); experiment: Serine protease enzyme inhibition assay, proteinase 3; type: biochemical; conditions: mean ± S.E.M. (n ≥ 3)
T4 construct: purchased Merk 539483
T4 sequence (P24158 28-256): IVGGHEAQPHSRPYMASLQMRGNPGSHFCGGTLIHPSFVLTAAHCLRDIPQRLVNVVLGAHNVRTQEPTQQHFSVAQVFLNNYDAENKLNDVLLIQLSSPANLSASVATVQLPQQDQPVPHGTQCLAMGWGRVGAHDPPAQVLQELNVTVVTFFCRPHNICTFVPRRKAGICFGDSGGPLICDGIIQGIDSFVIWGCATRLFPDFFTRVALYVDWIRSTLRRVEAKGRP

[4] = Neutrophil, fMLF/CB-activated human neutrophils
[5] = fMLF/CB-activated human neutrophils
[6] = read-out: IC50 Thrombin, enzyme assay, mean ± S.E.M. (n ≥ 3)

| SMILES | IC50 (Human cathepsin G) [µM] | IC50 (Bovine chymotrypsin) [µM] | IC50 [1, 4] [µM] | IC50 HNE (NE activity / elastase release) [1, 5] | IC50 [2] [µM] | IC50 ([3]; Neutrophil) [µM] | efficacy relative to ursolic acid [3] [fold] | IC50 O2^.− generation [3] | IC50 (Human thrombin) [µM] | IC50 (Human proteinase 3) [µM] | IC50 [1, 5] [µM] | Inh % (HNE inhibition) [2] [%] | IC50 [3] [µM] | IC50 (Human thrombin; [6]) [µM] | IC50 ([1]; Homo sapiens, Neutrophil) [µM] | selectivity of inhibitory effect among serine proteases ([2]; five serine proteases examined) |
| --- | --- | --- | --- | --- | --- | --- | --- | --- | --- | --- | --- | --- | --- | --- | --- | --- |
| CC1=C2C3=CCC4[C@@]5(C)CC[C@H](O)C(C)(C)C5CC[C@@]4(C)[C@]3(C)CC[C@@]2(C(=O)O)CC[C@H]1C (some centres unmarked) [Compound 15-1, randialic acid B] | > 30 | 16.98 ± 0.1 | 0.06 ± 0.01 | good inhibitory effects | > 30 | 0.14 ± 0.09 | 5 | good inhibitory effects | 24.9 ± 1.33 | 17.44 ± 0.16 |  |  |  |  |  |  |
| O=C(C=Cc1ccc(O)c(O)c1)OC1CC(O)(C(=O)O)CC(O)C1O (centres unmarked) [Compound 1] | > 30 | > 30 |  |  | > 30 |  |  |  |  | > 30 | > 10 | -2.99 ± 1.35 | 1.54 ± 0.29 | > 30 |  |  |
| CC1=C(C)C2C3=CCC4[C@@]5(C)CC[C@H](O)C(C)(C)C5CC[C@@]4(C)[C@]3(C)CC[C@@]2(C(=O)O)CC1 (some centres unmarked) [Compound 15-2, sanguisorbigenin] | > 30 | 11.4 ± 0.2 |  | good inhibitory effects | 24.7 ± 0.48 | 0.26 ± 0.1 | 5 | good inhibitory effects | 11.8 ± 2.2 | 14.8 ± 0.59 |  |  |  |  | 0.2 ± 0.02 | non-selective inhibitory effects |
| CC1(C)CC[C@]2(C(=O)O)CC[C@]3(C)C(=CC[C@@H]4[C@@]5(C)CC[C@H](O)C(C)(C)[C@@H]5CC[C@]43C)[C@@H]2[C@@H]1O [Compound 14-1] | > 30 | > 30 |  |  | > 30 |  |  |  |  | > 30 | 2.84 ± 1.02 |  | 4.77 ± 0.4 | > 30 |  |  |
| C[C@@H]1O[C@@H](O[C@H]2[C@H](OC(=O)[C@]34CCC(C)(C)[C@@H](O)[C@H]3C3=CC[C@@H]5[C@@]6(C)CC[C@H](O[C@@H]7OC[C@H](O)[C@H](O[C@@H]8O[C@H](CO)[C@@H](O)[C@H](O)[C@H]8O)[C@H]7O[C@@H]7O[C@@H](C)[C@H](O)[C@@H](O)[C@H]7O)C(C)(C)[C@@H]6CC[C@@]5(C)[C@]3(C)CC4)O[C@H](CO)[C@@H](O)[C@@H]2O)[C@H](O)[C@H](O)[C@H]1O [Compound 14] | > 30 | > 30 |  |  | > 30 |  |  |  |  | > 30 | > 10 |  | > 10 | > 30 |  |  |
| O=C(/C=C/c1ccc(O)c(O)c1)O[C@H]1[C@H](O)C[C@](O)(C(=O)O)C[C@H]1OC(=O)/C=C/c1ccc(O)c(O)c1 [Compound 7, 4,5-DCQA] | > 30 | > 30 |  |  | > 30 |  |  |  |  | > 30 | > 10 | 36.42 ± 2.25 | 1.49 ± 0.38 | > 30 |  |  |
| O=C(/C=C/c1ccc(O)c(O)c1)O[C@H]1[C@H](O)C[C@](O)(C(=O)O)C[C@H]1OC(=O)/C=C/c1ccc(O)c(O)c1 [Compound 4, 3,4-DCQA] | > 30 | > 30 |  |  | > 30 |  |  |  |  | > 30 | > 10 | 9.91 ± 0.99 | 1.7 ± 0.28 | > 30 |  |  |
| C[C@@H]1O[C@@H](O[C@H]2[C@H](OC(=O)[C@]34CC[C@@H](C)[C@@](C)(O)[C@H]3C3=CC[C@@H]5[C@@]6(C)CC[C@H](O[C@@H]7OC[C@H](O)[C@H](O[C@@H]8O[C@H](CO)[C@@H](O)[C@H](O)[C@H]8O)[C@H]7O[C@@H]7O[C@@H](C)[C@H](O)[C@@H](O)[C@H]7O)C(C)(C)[C@@H]6CC[C@@]5(C)[C@]3(C)CC4)O[C@H](CO)[C@@H](O)[C@@H]2O)[C@H](O)[C@H](O)[C@H]1O [Compound 15] | > 30 | > 30 |  |  | > 30 |  |  |  |  | > 30 | 7.99 ± 1.18 |  | > 10 | > 30 |  |  |
| N#C/C=C1/C=C[C@@H](O)C[C@H]1O[C@@H]1O[C@H](CO)[C@@H](O)[C@H](O)[C@H]1O [Compound 18, menisdaurin] | > 30 | > 30 |  |  | > 30 |  |  |  |  | > 30 | > 10 |  | > 10 | > 30 |  |  |
| C[C@@H]1O[C@@H](O[C@H]2[C@H](O[C@H]3CC[C@]4(C)[C@H]5C=CC6=C7[C@]8(CC[C@](C)(OC8=O)[C@@]7(C)O)CC[C@@]6(C)[C@]5(C)CC[C@H]4C3(C)C)OC[C@H](O)[C@@H]2O[C@@H]2O[C@H](CO)[C@@H](O)[C@H](O)[C@H]2O)[C@H](O)[C@H](O)[C@H]1O [Compound 11] | > 30 | > 30 |  |  | > 30 |  |  |  |  | > 30 | > 10 |  | > 10 | > 30 |  |  |
| O=C(/C=C/c1ccc(O)c(O)c1)O[C@@H]1C[C@](O)(C(=O)O)C[C@@H](O)[C@H]1O [Compound 3, Chlorogenic acid] | > 30 | > 30 | > 10 |  | > 30 | 2.56 ± 1.06 |  |  | > 30 | > 30 |  | -4.76 ± 3.36 |  |  |  |  |
| N#CC=C1C=CC(O)CC1OC1OC(CO)C(O)C(O)C1O (centres unmarked) [Compound 19, menisdaurin F] | > 30 | > 30 |  |  | > 30 | > 10 |  |  | > 30 | > 30 |  |  |  |  | > 10 |  |
| CC1(C)[C@@H](O)CC[C@]2(C)[C@H]3C=CC4=C5[C@]6(CC[C@](C)(OC6=O)[C@@]5(C)O)CC[C@@]4(C)[C@]3(C)CC[C@@H]12 [Compound 11-1] | > 30 | 8.06 ± 0.4 |  |  | > 30 |  |  |  |  | 7.62 ± 0.32 | > 10 |  | > 10 | > 30 |  |  |
| O=C(C=Cc1ccc(O)c(O)c1)OC1C(O)CC(O)(C(=O)O)CC1O (centres unmarked) [Compound 2] | > 30 | > 30 |  |  | > 30 |  |  |  |  | > 30 | > 10 | -3.43 ± 4.85 | 2.81 ± 1 | > 30 |  |  |
